In paper PMC4893612 (Scientific Reports, 2016):

How the values were obtained:
26S proteasome = 26S proteasome (Homo sapiens, UniProt P54578+Q9Y5K5); experiment: SPR binding to 26S proteasomes, CM7 chip
Source text: A BIACORE T200 was used for characterization of the interaction between compounds and USP14, UCHL5 and 26S proteasome. The standard BIACORE protocols were used for NTA chip (Ni/His-tag immobilization) and CM7 chip for compound interaction studies with slight modification described below. The x6 his-tagged USP14 and UCHL5 proteins were coupled to a Series S NTA BIACORE sensor chip in the BIACORE T200 using the his-tags for adherence of the proteins to the surface and an amine coupling procedure for covalent attachment to the chip surface. NTA chip was cleaned using three 500 μM EDTA injections followed by an injection of 500 μM Ni^2+ and activation of the chip surface with EDC/NHS injection according to BIACORE standard methods. Each chip has four separate areas, which were handled separately during the immobilization procedure. Area 1 was used as blank reference surface, area 2–4 was coupled with investigated recombinant proteins or complexes. Proteins were diluted in running buffer (10 mM HEPES, 150 mM NaCl, 0,005% Tween 20) to typically 10 μg/ml before injection(1 mL) over the prepared surfaces. […] The immobilization procedure was followed by injections of compound concentration series of VLX1570. […] Rmax and KD were calculated using Langmuir binding isotherms as provided in the Biacore software.

USP5 = molecular target: T1, USP5 (Homo sapiens, UniProt P45974); experiment: SPR binding to USP5; conditions: data not shown
T1 sequence (P45974 1-858): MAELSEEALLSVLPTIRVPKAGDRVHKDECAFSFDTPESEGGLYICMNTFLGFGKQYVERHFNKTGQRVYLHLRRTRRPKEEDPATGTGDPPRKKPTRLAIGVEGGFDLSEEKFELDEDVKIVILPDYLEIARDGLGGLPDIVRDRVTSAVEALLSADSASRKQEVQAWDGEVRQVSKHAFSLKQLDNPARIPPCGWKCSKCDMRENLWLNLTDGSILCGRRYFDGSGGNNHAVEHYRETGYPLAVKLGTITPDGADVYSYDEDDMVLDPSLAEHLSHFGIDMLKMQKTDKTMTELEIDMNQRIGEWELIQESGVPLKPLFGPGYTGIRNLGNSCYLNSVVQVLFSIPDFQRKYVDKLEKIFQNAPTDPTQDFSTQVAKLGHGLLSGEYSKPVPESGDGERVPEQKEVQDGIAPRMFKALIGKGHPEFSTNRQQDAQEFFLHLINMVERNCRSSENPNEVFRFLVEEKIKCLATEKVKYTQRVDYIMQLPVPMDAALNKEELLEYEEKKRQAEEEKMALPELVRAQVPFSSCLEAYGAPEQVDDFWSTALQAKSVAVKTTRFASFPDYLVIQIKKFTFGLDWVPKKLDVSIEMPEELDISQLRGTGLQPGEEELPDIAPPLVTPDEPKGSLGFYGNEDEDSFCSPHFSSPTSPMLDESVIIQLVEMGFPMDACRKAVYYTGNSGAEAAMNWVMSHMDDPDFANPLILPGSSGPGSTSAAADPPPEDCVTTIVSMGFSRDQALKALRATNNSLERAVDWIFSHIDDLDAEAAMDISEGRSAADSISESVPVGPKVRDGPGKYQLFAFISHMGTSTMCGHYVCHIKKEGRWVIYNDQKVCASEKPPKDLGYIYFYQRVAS

KMS-11 = experiment: MTT antiproliferative assay, KMS-11; type: cell-based; conditions: Homo sapiens, 72 hours
Method: Cell viability was monitored by the MTT (3-(4,5-dimethylthiazol-2-yl)-2,5-diphenyltetrazolium bromide) assay. For the MTT assay, cells were suspended at 5 × 10^5 cells/ml, and 100 μl aliquots were dispended into 96-well microtiter plates and exposed to drugs as described using DMSO control. At the end of incubations, 10 μl of a stock solution of 5 mg/ml MTT (3-(4,5-dimethylthiazol-2-yl)-2,5-diphenyltetrazolium bromide), was added into each well, and the plates were incubated 4 hours at 37 °C. Formazan crystals were dissolved with 100 μl of 10% SDS/10 mM HCl solution overnight at 37 °C. Since MTT assays are affected by mitochondrial activity, and since OXPHOS is affected by VLX1570 (unpublished observation), we used the acid phosphatase method[49] to determine cell viability in some experiments. After washing twice with PBS, cells were lysed in 100 μl of 0.1 M sodium acetate, 0,1% Triton X-100, p-nitrophenylphosphate (Pierce Biotechnology Inc, Rockford, IL) and incubated for 90 min at 37 °C. At the end of the incubation, 10 μl NaOH was added to each well and A405 was determined.

[1] = tested on: KMS-11 multiple myeloma cells; type: in vivo; conditions: 3 mg/kg intravenous, 10 days; SCID mice
Method: Two different multiple myeloma models were used. Experimental protocols and methods were performed by Accelera (Nerviano, Italy) in accordance with guidelines and with permission from the local ethics committee (Nerviano Medical Sciences (NMS) Ethic Committee). All experimental protocols were approved by the Nerviano Medical Sciences (NMS) Ethic Committee. Study director was Marina Ciomei. SCID female mice were obtained from Charles River, Italy. Body weights at the day of tumor implant were between 19 and 22 grams. Treatment started at day 7 after injection of tumor cells and continued for 10 consequtive days. Mice were monitored daily for mortality and clinical signs. In the KMS-11 model, antitumor efficacy was evaluated in terms of survival increase respect to control. In the RPMI8226 model, the growth of subcutaneous tumors was recorded. […] A gray-scale image of the mice was captured, followed by an overlay of a bioluminescence map representing the spatial distribution of photons detected from cleaved luciferin in the cancer cells expressing luciferase. Signal intensity was quantified using a customized version of the IGOR Pro version 4.09A Software (WaveMetrics, Inc., Lake Oswego, OR) called Living Image version 3.00 (Xenogen). Photon emission was measured as whole-body radiance and the individual regions of interest (ROIs) were manually selected. […]

Chain of 26S proteasome (Q9Y5K5 whole entry): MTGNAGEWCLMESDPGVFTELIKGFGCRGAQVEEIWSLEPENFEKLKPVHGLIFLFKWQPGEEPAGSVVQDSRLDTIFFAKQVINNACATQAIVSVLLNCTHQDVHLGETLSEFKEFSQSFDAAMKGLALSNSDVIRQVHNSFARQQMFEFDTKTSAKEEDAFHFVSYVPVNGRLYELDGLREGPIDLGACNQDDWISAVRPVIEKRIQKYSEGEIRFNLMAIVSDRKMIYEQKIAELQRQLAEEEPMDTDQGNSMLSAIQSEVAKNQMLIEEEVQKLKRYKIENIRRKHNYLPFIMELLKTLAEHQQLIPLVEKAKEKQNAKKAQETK
Chain of 26S proteasome (P54578 whole entry): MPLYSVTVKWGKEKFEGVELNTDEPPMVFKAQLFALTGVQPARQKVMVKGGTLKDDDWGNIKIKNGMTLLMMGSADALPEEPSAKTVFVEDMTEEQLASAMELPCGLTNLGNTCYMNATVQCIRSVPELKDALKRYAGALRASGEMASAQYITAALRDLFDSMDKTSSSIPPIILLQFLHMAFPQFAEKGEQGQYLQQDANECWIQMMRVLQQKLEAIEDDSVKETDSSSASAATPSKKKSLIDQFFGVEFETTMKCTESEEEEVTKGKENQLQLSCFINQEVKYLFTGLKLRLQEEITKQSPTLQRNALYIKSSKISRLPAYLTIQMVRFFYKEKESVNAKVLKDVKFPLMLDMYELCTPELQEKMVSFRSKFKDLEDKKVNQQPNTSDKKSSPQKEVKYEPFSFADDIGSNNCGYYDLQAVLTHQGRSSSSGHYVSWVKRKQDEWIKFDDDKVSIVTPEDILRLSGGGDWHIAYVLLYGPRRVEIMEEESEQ
Chain of 26S proteasome (Q13200 whole entry partner): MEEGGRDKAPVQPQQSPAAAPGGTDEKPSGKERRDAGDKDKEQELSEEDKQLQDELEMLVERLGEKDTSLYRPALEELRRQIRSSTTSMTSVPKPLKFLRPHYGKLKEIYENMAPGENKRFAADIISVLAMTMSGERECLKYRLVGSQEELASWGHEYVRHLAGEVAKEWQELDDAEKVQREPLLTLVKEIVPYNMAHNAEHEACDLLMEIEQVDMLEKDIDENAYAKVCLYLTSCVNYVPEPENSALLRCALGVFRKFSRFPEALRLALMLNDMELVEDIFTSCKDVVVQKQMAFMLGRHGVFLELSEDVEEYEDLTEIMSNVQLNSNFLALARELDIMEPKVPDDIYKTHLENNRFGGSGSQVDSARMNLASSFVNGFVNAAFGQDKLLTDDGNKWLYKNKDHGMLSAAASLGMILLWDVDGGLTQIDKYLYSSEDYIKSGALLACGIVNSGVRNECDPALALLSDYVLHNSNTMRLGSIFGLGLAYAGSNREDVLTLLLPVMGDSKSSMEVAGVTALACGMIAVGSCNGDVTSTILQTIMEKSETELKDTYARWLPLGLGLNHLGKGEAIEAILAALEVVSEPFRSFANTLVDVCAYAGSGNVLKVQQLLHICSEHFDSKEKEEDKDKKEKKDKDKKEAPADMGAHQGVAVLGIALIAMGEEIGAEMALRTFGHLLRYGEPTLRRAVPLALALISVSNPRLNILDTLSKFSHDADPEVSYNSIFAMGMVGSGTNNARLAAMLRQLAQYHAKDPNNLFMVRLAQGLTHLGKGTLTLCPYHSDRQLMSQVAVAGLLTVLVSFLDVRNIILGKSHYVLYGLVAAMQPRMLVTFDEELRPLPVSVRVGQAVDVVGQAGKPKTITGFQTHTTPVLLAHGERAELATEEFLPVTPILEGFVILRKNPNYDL

## C=CC(=O)N1CC/C(=C\c2ccc(F)c([N+](=O)[O-])c2)C(=O)/C(=C/c2ccc(F)c([N+](=O)[O-])c2)C1 [VLX1570]
26S proteasome; immobilised 26S proteasome
  VLX1570 binding Relative RU × 100 +/− S.D.: 0.21 ± 0.09
26S proteasome; immobilised 26S proteasome pre-incubated with Ub-VS
  VLX1570 binding Relative RU × 100 +/− S.D.: 0.04 ± 0.01
USP5
  saturable binding to USP5: No saturable binding
KMS-11
  IC50: 43 ± 2 nM
[1]
  survival of the animals: increased the survival
